From US20070049626A1, “Treating premature ejaculation using gabapentin and pregabalin prodrugs” (priority 2005, published 2007)

How the values were obtained:
[1] = tested on: PCA-induced ejaculation in anaesthetized rats; test: p-chloroamphetamine (PCA)-induced ejaculation in anaesthetized rats; format: in vivo, rat; conditions: for effect on PCA-induced ejaculation: 1, 3, 10 or 30 mg/kg po, 60 min prior to PCA; for quality of erection: PCA model; for ejaculatory latency: doses above 3 mg/kg po, excipient-only about 300 s
Procedure: (§1) For all the sexual behavior tests, the rapid ejaculating Sprague Dawley rats, weighing 350-450 g, are used as an animal model of premature ejaculation (classified as ejaculatory latency <300 s during baseline assessment). Prior to the experiments the animals are housed in groups (2 rats per cage) under controlled 12 h light-dark cycle (lights on at 07:00), constant temperature (23±1° C.), and humidity (55±5%). The animals are given free access to standard food pellets and water.
The compounds are dosed orally by taking the tablets of Examples 1 and 2, finely crushing them and suspending the resulting powder in an aqueous vehicle for oral administration to rats by gavage. Compounds (100) and (101) are tested at 1, 3, 10 or 30 mg/kg po, 60 min prior to PCA administration. Compounds (100) and (101) each dose-dependently increases ejaculatory latency by up to 250%. As a baseline comparison, some of the rats are given a placebo formulation similar to Examples 1 and 2, but containing no prodrug.

[2] = tested on: rapid ejaculating Sprague Dawley rats; test: Copulatory behavior in rapid ejaculating conscious rats (model of premature ejaculation); format: in vivo, rat; conditions: rapidly-ejaculating conscious rats; for other effects on copulatory behavior: 10 mg/kg oral; for increase of ejaculatory latency / ejaculatory latency (time to ejaculate): 10 mg/kg, 60 min post oral dosing; for increase of ejaculatory latency: P<0.01; for ejaculatory latency (time to ejaculate): excipient-only about 140 s
Procedure: as §1
The rats are placed in an observation arena (50-60 cm diameter), starting 5 hours into the dark cycle and observed under red illumination. Three to four minutes after placing the male in the arena, a receptive female (ovariectomised, oestradiol benzoate/progesterone injection 48 hour before behavioral study) is introduced into the arena and the following parameters are noted: (i) ejaculatory latency (EJL; time taken from addition of receptive female into the arena to ejaculation); (ii) copulatory efficiency (CE; ejaculatory latency/the number of intromissions to ejaculation, i.e., the number of seconds between intromissions); (iii) intromission frequency (IF; the number of intromissions to ejaculation); (iv) mount frequency (MF; the number of mounts to ejaculation); (v) post ejaculatory interval (PEI; the time taken from ejaculation to the commencement of copulatory behavior).
Rodent copulatory behavior is characterized by a series of mounts, with and without vaginal insertion (50-80% of mounts result in intromission (vaginal penetration)) and ejaculation occurs after 6 to 12 intromissions. Each intromission lasts a matter of seconds—it is not possible to quantify intromission length i.e., intravaginal latency. The effect of compounds (100) and (101) is assessed on a number of copulatory parameters (see above). We are focusing on ejaculatory latency as an objective clinical outcome measure of time taken to achieve ejaculation. The study is performed in rapid ejaculating rats as a model of premature ejaculation (rats characterized by ejaculatory latency <300 s at baseline). Compound (100) and (101) increases ejaculatory latency by 58% in rapidly-ejaculating conscious rats (P<0.01), i.e., compound (100) and (101) (each to be dosed at 10 mg/kg, 60 min post oral dosing)-treated animals take about 200 s to ejaculate compared to about 140 s in excipient-only treated animals.

[3] = Tmax after oral administration of immediate release formulation; format: in vivo; conditions: human, blood, following oral administration
Text: The compounds disclosed herein, for example, the gabapentin prodrug 1-{[(α-isobutanoyloxyethoxy)carbonyl]aminomethyl}-1-cyclohexane acetic acid, is more efficacious than the parent drug molecule (i.e., gabapentin) in treating premature ejaculation because the disclosed compounds require less time to reach a therapeutic concentration in the blood, i.e., the compounds disclosed herein have a shorter Tmax than their gabapentin or pregabalin “counterparts” when taken orally. […] This provides an advantage over the parent drugs (i.e., gabapentin and pregabalin) in that the patient need not wait as long after administering the prodrugs before a therapeutic concentration of the active parent drug in the blood is reached. Thus, the prodrugs disclosed herein allow the patient to dose shortly before sexual activity, allowing sexual activity to occur with more spontaneity, compared to dosing of either gabapentin or pregabalin.

SMILES	effect on PCA-induced ejaculation [1]	quality of erection [1]	ejaculatory latency [1]	other effects on copulatory behavior [2]	increase of ejaculatory latency [2] [%]	ejaculatory latency (time to ejaculate) [2]	Tmax [3] [h]
CC(C)CC(CNC(=O)OC(C)OC(=O)C(C)C)CC(=O)O (stereo not drawn) [Compound (101), 3-{[(α-Isobutanoyloxyethoxy)carbonyl]aminomethyl}-5-methyl Hexanoic Acid]	significantly delays	not influenced	about 1000 s	no other significant effects	58	about 200 s	–
NCC1(CC(=O)O)CCCCC1 [gabapentin]	–	–	–	–	–	–	2.8 to 3.3
CC(OC(=O)NCC1(CC(=O)O)CCCCC1)OC(=O)C(C)C (stereo not drawn) [Compound (100), 1-{[(α-Isobutanoyloxyethoxy)carbonyl]aminomethyl}-1-Cyclohexane Acetic Acid]	significantly delays	not influenced	about 1000 s	no other significant effects	58	about 200 s	–
